From US5541163A, “Renin inhibiting N-(2-amino-2-oxoethyl)butanediamide derivatives” (Bio-Mega/Boehringer Ingelheim Research Inc., priority 1993, dated 1996) come the findings set out here.

The IC50 is the concentration needed to halve the response being measured.

The assay addresses T1, human renin (Homo sapiens, UniProt P00797).
T1 construct: A human plasma pool is used as the source of both the substrate (angiotensinogen) and the enzyme (renin); from tissue; host or cells: human plasma pool
T1 sequence (P00797 67-406): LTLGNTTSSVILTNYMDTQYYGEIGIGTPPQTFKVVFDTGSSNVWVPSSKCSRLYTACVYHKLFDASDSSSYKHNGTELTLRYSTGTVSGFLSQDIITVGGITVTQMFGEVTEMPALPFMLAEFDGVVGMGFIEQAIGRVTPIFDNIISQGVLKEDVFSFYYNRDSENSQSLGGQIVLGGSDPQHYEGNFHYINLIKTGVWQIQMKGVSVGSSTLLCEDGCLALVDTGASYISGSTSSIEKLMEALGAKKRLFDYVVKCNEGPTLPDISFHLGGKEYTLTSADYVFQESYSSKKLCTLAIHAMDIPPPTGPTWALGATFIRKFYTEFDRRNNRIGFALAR
The assay is described as follows: Plasma renin assay (inhibition of human renin, angiotensin I by RIA). The format is biochemical. The conditions noted are these: human plasma pool, pH 6.0, 2 h incubation at 37°. The method, then:
The assay is performed as follows: The test compound (i.e. the inhibitor) is dissolved in dimethylsulfoxide (1 mM stock solution) and diluted with an aqueous buffer solution of 270 mM 2-(N-morpholino)ethanesulfonic acid and 1% human serum albumin (pH 5.85, also containing dimercaprol and 8-hydroxyquinoline sulfate in accordance with the instructions of the RIA kit noted below) to give an assay mixture in which the final dimethylsulfoxide content is 1% (v/v).
A human plasma pool is used as the source of both the substrate (angiotensinogen) and the enzyme (renin). The reaction is initiated by the addition of 50 μL of human plasma pool to 50 μL of various concentrations of inhibitor in the 1% dimethylsulfoxide assay buffer. The plasma renin activity is measured by the amount of angiotensin I generated at pH 6.0 following a 2 h incubation at 37°.
Quantitation of angiotensin I is performed by radioimmunoassay (RIA kit from New England Nuclear-Dupont, Mississauga, ON, Canada). The enzymatic activity of renin is expressed in ng of angiotensin I generated (/mL/2 h). The extent of inhibition of the reaction is determined from the amount of angiotensin I generated in reference to a control prepared without inhibitor. Nonlinear regression analysis is used to calculate the IC50 values, i.e. the molar concentration of the test compound required to cause a 50% inhibition of the enzyme activity.
As to `CC(C)C[C@H](O)[C@H](O)[C@H](CC1CCCCC1)NC(=O)[C@@H](CC(=O)N(CC(=O)N(C)C)CC1CC2CCC1C2)Cc1cscn1` (mixture of isomers) [Compound 56, N^4 -{{1(S),2(R),4(S)-and 1(R),2(S),4(R)-{bicyclo[2.2.1]hept-2-yl}methyl}-N^4-[2-(dimethylamino)-2-oxoethyl]-N^1-[1(S)-(cyclohexylmethyl)-2(R),3(S)-dihydroxy-5-methylhexyl]-2(R)-(4-thiazolylmethyl)butanediamide], the IC50 worked out at 2 nM. The same measure for `CC(C)C[C@H](O)[C@H](O)[C@H](CC1CCCCC1)NC(=O)[C@@H](CC(=O)N(CC(=O)N1CCOCC1)Cc1ccccc1)CC1CC1` [Compound 1, N^4-benzyl-N^4-(2-morpholino-2-oxoethyl)-N^1-[1(S)-(cyclohexylmethyl)-2(R),3(S)-dihydroxy-5-methylhexyl]-2(R)-(cyclopropylmethyl)butanediamide]: 94 nM; for `CC(C)C[C@H](O)[C@H](O)[C@H](CC1CCCCC1)NC(=O)[C@@H](CC(=O)N(CC(=O)N(C)C)Cc1ccccc1)CC1CC1` [Compound 2, N^4-benzyl-N^4-[2-(dimethylamino)-2-oxoethyl]-N^1-[1(S)-(cyclohexylmethyl)-2(R),3(S)-dihydroxy-5-methylhexyl]-2(R)-(cyclopropylmethyl)butanediamide]: 56 nM. The result for `CC(C)C[C@H](O)[C@H](O)[C@H](CC1CCCCC1)NC(=O)[C@@H](CC(=O)N(CCc1ccccc1)CC(=O)N(C)C)CC1CC1` [Compound 3, N^4-[2-(dimethylamino)-2-oxoethyl]-N^4-(2-phenylethyl)-N^1-[1(S)-(cyclohexylmethyl)-2(R),3(S)-dihydroxy-5-methylhexyl]-2(R)-(cyclopropylmethyl)butanediamide] reads 59 nM; that for `CC(C)C[C@H](O)[C@H](O)[C@H](CC1CCCCC1)NC(=O)[C@@H](CC(=O)N(CCCc1ccccc1)CC(=O)N(C)C)CC1CC1` [Compound 4, N^4-[2-(dimethylamino)-2-oxoethyl]-N^4-(3-phenylpropyl)-N^1-[1(S)-(cyclohexylmethyl)-2(R),3(S)-dihydroxy-5-methylhexyl]-2(R)-(cyclopropylmethyl)butanediamide], 220 nM. The result for `CC(C)C[C@H](O)[C@H](O)[C@H](CC1CCCCC1)NC(=O)[C@@H](CC(=O)N(CC(=O)N(C)C(C)(C)C)Cc1ccccc1)CC1CC1` [Compound 5, N^4-benzyl-N^4 -{2-[methyl(1,1-dimethylethyl)amino]-2-oxoethyl}-N^1-[1(S)-(cyclohexylmethyl)-2(R),3(S)-dihydroxy-5-methylhexyl]-2(R)-(cyclopropylmethyl)butanediamide] reads 290 nM; that for `CNC(=O)CN(Cc1ccccc1)C(=O)C[C@@H](CC1CC1)C(=O)N[C@@H](CC1CCCCC1)[C@@H](O)[C@@H](O)CC(C)C` [Compound 6, N^4-benzyl-N^4-[2-(methylamino)-2-oxoethyl]-N^1-[1(S)-(cyclohexylmethyl)-2(R),3(S)-dihydroxy-5-methylhexyl]-2(R)-(cyclopropylmethyl)butanediamide], 350 nM; that for `CC(C)C[C@H](O)[C@H](O)[C@H](CC1CCCCC1)NC(=O)[C@@H](CC(=O)N(CC(N)=O)Cc1ccccc1)CC1CC1` [Compound 7, N^4-(2-amino-2-oxoethyl)-N^4-benzyl-N^1-[1(S)-(cyclohexylmethyl)-2(R),3(S)-dihydroxy-5-methylhexyl]-2(R)-(cyclopropylmethyl)-butanediamide], 395 nM. Turning to `CON(C)C(=O)CN(Cc1ccccc1)C(=O)C[C@@H](CC1CC1)C(=O)N[C@@H](CC1CCCCC1)[C@@H](O)[C@@H](O)CC(C)C` [Compound 8, N^4-benzyl-N^4 -{2-[(methoxy)methylamino]-2-oxoethyl}-N^1-[1(S)-(cyclohexylmethyl)-2(R),3(S)-dihydroxy-5-methylhexyl]-2(R)-(cyclopropylmethyl)butanediamide], the IC50 was 66 nM. Against the preceding molecule, the IC50 is about 6-fold lower. The same measure for `CC(C)C[C@H](O)[C@H](O)[C@H](CC1CCCCC1)NC(=O)[C@@H](CC(=O)N(CC(=O)N(C)C)Cc1cccc2ccccc12)CC1CC1` [Compound 9, N^4-[2-(dimethylamino)-2-oxoethyl]-N^4-(1-naphthylmethyl)-N^1-[1(S)-(cyclohexylmethyl)-2(R),3(S)-dihydroxy-5-methylhexyl]-2(R)-(cyclopropylmethyl)butanediamide]: 66 nM; for `COc1ccc(CN(CC(=O)N(C)C)C(=O)C[C@@H](CC2CC2)C(=O)N[C@@H](CC2CCCCC2)[C@@H](O)[C@@H](O)CC(C)C)cc1` [Compound 10, N^4-[2-(dimethylamino)-2-oxoethyl]-N^4-[(4-methoxyphenyl)methyl]-N^1-[1(S)-(cyclohexylmethyl)-2(R),3(S)-dihydroxy-5-methylhexyl]-2(R)-(cyclopropylmethyl)butanediamide]: 440 nM. The result for `CCN(CC)C(=O)CN(Cc1ccccc1)C(=O)C[C@@H](CC1CC1)C(=O)N[C@@H](CC1CCCCC1)[C@@H](O)[C@@H](O)CC(C)C` [Compound 11, N^4-benzyl-N^4-[2-(diethylamino)-2-oxoethyl]-N^1-[1(S)-(cyclohexylmethyl)-2(R),3(S)-dihydroxy-5-methylhexyl]-2(R)-(cyclopropylmethyl)-butanediamide] reads 140 nM; that for `CC(C)C[C@H](O)[C@H](O)[C@H](CC1CCCCC1)NC(=O)[C@@H](CC(=O)N(CC(=O)N(C)CCc1ccccn1)Cc1ccccc1)CC1CC1` [Compound 12, N^4-benzyl-N^4 -{2-{methyl[2-(2-pyridinyl)ethyl]amino}-2-oxoethyl}-N^1-[1(S)-(cyclohexylmethyl)-2(R),3(S)-dihydroxy-5-methylhexyl]-2(R)-(cyclopropylmethyl)butanediamide], 34 nM; that for `CC(C)C[C@H](O)[C@H](O)[C@H](CC1CCCCC1)NC(=O)[C@@H](CC(=O)N(CC(=O)N(C)C)Cc1ccccn1)CC1CC1` [Compound 13, N^4-[2-(dimethylamino)-2-oxoethyl]-N^4-(2-pyridinylmethyl)-N^1-[1(S)-(cyclohexylmethyl)-2(R),3(S)-dihydroxy-5-methylhexyl]-2(R)-(cyclopropylmethyl)butanediamide], 120 nM.

`CC(C)C[C@H](O)[C@H](O)[C@H](CC1CCCCC1)NC(=O)[C@@H](CC(=O)N(CC(=O)N(C)C)Cc1cccnc1)CC1CC1` [Compound 14, N^4-[2-(dimethylamino)-2-oxoethyl]-N^4-(3-pyridinylmethyl)-N^1-[1(S)-(cyclohexylmethyl)-2(R),3(S)-dihydroxy-5-methylhexyl]-2(R)-(cyclopropylmethyl)butanediamide] returned an IC50 of 350 nM.

With `CC(C)C[C@H](O)[C@H](O)[C@H](CC1CCCCC1)NC(=O)[C@@H](CC(=O)N(CC(=O)N(C)CCN(C)C(=O)N1CCOCC1)[C@@H](C)c1ccccc1)Cc1csc(N)n1` [Compound 15, N^4 -{2-{methyl{2-[methyl(morpholinocarbonyl)amino]ethyl}amino}-2-oxoethyl}-N^4-[1(S)-phenylethyl]-N^1-[1(S)-(cyclohexylmethyl)-2(R),3(S)-dihydroxy-5-methylhexyl]-2(R)-[(2-amino-4-thiazolyl)methyl]butanediamide], the IC50 is 0.5 nM. The same measure for `CC(C)C[C@H](O)[C@H](O)[C@H](CC1CCCCC1)NC(=O)[C@@H](CC(=O)N(CC(=O)N(C)C)[C@H](C)c1ccccc1)CC1CC1` [Compound 16, N^4-[2-(dimethylamino)-2-oxoethyl]-N^4-[1(R)-phenylethyl]-N^1-[1(S)-(cyclohexylmethyl)-2(R),3(S)-dihydroxy-5-methylhexyl]-2(R)-(cyclopropylmethyl)butanediamide]: 460 nM; for `CC(C)C[C@H](O)[C@H](O)[C@H](CC1CCCCC1)NC(=O)[C@@H](CC(=O)N(CC(=O)N(C)C)[C@@H](C)c1ccccc1)CC1CC1` [Compound 17, N^4-[2-(dimethylamino)-2-oxoethyl]-N^4-[1(S)-phenylethyl]-N^1-[1(S)-(cyclohexylmethyl)-2(R),3(S)-dihydroxy-5-methylhexyl]-2(R)-(cyclopropylmethyl)butanediamide]: 34 nM. Take `CC(C)C[C@H](O)[C@H](O)[C@H](CC1CCCCC1)NC(=O)[C@@H](CC(=O)N(CC(=O)N(C)C)[C@@H](C)c1cccc2ccccc12)CC1CC1` [Compound 18, N^4-[2-(dimethylamino)-2-oxoethyl]-N^4-[1(S)-(1-naphthylethyl)]-N^1-[1(S)-(cyclohexylmethyl)-2(R),3(S)-dihydroxy-5-methylhexyl]-2(R)-(cyclopropylmethyl)butanediamide]: half-maximal inhibition (IC50) was put at 170 nM.
